{
  "source": "patent US20160199393A1",
  "about": "“METHODS OF TREATING BRAIN ISCHEMIA OR HYPOXIA” (China Medical University, priority 2015, published 2016)",
  "key": {"neurons": {"tested_on": "neurons", "assay": "Annexin V flow cytometric apoptosis assay after OGDR, neurons", "type": "cell-based, mouse", "settings": "WT cortical cells, 24 h after reperfusion, 10 μM (SAS 500 μM)", "protocol": "(§1) Annexin V staining was performed to determine cell apoptosis using the Annexin V-FITC Apoptosis Detection Kit (Sigma-Aldrich) for 10 min at room temperature according to the manufacturers instructions, and then flow cytometric analysis was performed.\n(§2) The three-color staining flow cytometric assay using allophycocyanin-microtubule-associated protein 2 (MAP2) for neuron staining, phycoerythrin (PE)-GFAP for astrocyte staining and FITC-annexin V for apoptotic cell staining was performed to count the numbers of neurons, astrocytes, and apoptotic cells. FIGS. 21A and […] show the results of apoptosis in wild type (WT) and xCT^−/− cortical cells treated with OGDR at 24 h after reperfusion. *P<0.01 compared to WT without OGDR, Student's t-test. ^#P<0.01 compared to WT with OGDR, Student's t-test. From FIGS. 21A and 21B it was observed that that smaller numbers of apoptotic cells were present in xCT^−/− neurons and astrocytes after OGDR treatment."}, "system xc−": {"target": "T1, system xc− (Mus musculus, UniProt Q9WTR6)", "T1 construct": "endogenous in cells; host or cells: primary cortical cells from E17 wild-type C57BL/6J mouse embryos, exposed to OGDR", "T1 sequence (Q9WTR6 1-502)": "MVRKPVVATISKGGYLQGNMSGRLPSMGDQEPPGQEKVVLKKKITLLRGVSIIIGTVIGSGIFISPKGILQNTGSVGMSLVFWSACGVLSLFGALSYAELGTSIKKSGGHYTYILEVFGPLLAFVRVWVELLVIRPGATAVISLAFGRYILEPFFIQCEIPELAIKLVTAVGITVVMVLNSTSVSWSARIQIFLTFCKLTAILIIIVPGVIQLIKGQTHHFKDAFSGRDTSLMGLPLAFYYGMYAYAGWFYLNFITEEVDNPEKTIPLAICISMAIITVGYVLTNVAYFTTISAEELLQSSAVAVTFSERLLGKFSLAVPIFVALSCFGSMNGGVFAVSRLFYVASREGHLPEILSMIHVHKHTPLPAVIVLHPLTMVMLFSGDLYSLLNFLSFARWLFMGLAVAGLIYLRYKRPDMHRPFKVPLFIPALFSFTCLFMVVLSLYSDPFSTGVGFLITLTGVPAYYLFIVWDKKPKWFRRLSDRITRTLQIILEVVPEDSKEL", "T1 sequence (P10852 1-526 partner)": "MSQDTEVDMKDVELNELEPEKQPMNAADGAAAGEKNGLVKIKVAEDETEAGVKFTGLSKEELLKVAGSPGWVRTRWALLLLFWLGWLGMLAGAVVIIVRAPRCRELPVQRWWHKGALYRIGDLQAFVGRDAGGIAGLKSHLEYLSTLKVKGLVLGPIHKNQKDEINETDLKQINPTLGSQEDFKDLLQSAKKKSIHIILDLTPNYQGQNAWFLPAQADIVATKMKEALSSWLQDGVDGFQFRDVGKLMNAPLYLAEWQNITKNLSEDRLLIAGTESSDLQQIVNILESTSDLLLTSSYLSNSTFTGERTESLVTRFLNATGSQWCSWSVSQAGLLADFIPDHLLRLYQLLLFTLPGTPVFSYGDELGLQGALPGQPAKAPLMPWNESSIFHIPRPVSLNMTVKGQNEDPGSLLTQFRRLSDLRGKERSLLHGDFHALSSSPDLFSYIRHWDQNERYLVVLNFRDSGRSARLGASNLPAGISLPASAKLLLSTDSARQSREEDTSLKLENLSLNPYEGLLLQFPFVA", "assay": "Extracellular glutamate content in WT cortical cells exposed to OGDR", "type": "cell-based", "settings": "24 h after reperfusion, 10 μM (SAS 500 μM)", "protocol": "(§3) Primary cortical cells were prepared from cerebral cortices of wild-type C57BL/6J or homozygote xCT^−/− mouse embryos in embryonic day 17 as previously described with modification (Goldberg M P, Choi D W. Combined oxygen and glucose deprivation in cortical cell culture: calcium-dependent and calcium-independent mechanisms of neuronal injury. The Journal of neuroscience: the official journal of the Society for Neuroscience, 1993; 13(8):3510-24, which is incorporated here by reference)."}, "NMDAR": {"tested_on": "NMDAR", "settings": "WT cortical cells, OGDR, 24 h after reperfusion; 10 μM (SAS 500 μM)"}, "astrocytes": {"tested_on": "astrocytes", "assay": "Annexin V flow cytometric apoptosis assay after OGDR, astrocytes", "type": "cell-based, mouse", "settings": "WT cortical cells, 24 h after reperfusion, 10 μM (SAS 500 μM)", "protocol": "as §1, §2"}, "cortical infarct [1]": {"tested_on": "cortical infarct", "assay": "TTC staining infarct volume in rats with CIR", "type": "in vivo, rat", "settings": "30 mg/kg ip for 3 days, compared to vehicle"}, "WT cortical cells": {"tested_on": "WT cortical cells", "assay": "Lactate dehydrogenase (LDH) level in WT cortical cells after OGD/OGDR", "type": "cell-based, mouse", "settings": "OGDR, 24 h after reperfusion, 10 μM (SAS 500 μM)", "protocol": "as §3\nThe LDH assay was carried out at 24 hours after reperfusion. *P<0.01 compared to drugs-untreated cells (Un), one-way ANOVA. Error bars denote the standard deviation among triplicate experiments."}, "rats with CIR": {"tested_on": "rats with CIR", "assay": "Neurological behavioral measurements in rats with CIR", "type": "in vivo, rat", "procedure": "(§4) Eight to ten-week-old male adult male Sprague-Dawley rats, C57BL/6J mice and xCT^−/− mice were anesthetized with 1.5% isoflurane in oxygen, allowed breathing spontaneously, and body temperature was maintained at 37° C. with a heat lamp during surgery for right middle cerebral artery ligation and bilateral common carotid artery clamping as previously described (Chen S T, Hsu C Y, Hogan E L, Maricq H, Balentine J D. A model of focal ischemic stroke in the rat: reproducible extensive cortical infarction. Stroke; a journal of cerebral circulation. 1986; 17(4):738-43, which is incorporated here by reference). Animals were subjected to transient cerebral ischemia for 90 min in rats and 2 h in mice.\nBehavioral assessments were performed 3 days before cerebral ischemia and 72 hours after cerebral ischemia. The tests measured body asymmetry and locomotor activity. Furthermore, grip strength was analyzed using Grip Strength Meter (TSE-Systems) as previously described with modification. In brief, the percentage of improvement in grip strength was measured on each fore limb separately and was calculated as the ratio between mean strength of 20 pulls of the side contralateral to the ischemia and the ipsilateral side. In addition, the ratio of grip strength after treatment to baseline was also calculated, and changes were presented as percent of baseline (Shyu W C, Lin S Z, Chiang M F, Chen D C, Su C Y, Wang H J, et al. Secretoneurin promotes neuroprotection and neuronal plasticity via the Jak2/Stat3 pathway in murine models of stroke. The Journal of clinical investigation. 2068; 118(1):133-48, which is incorporated by reference).\n(§5) Rats were treated intraperitoneal injection with either vehicle, SAS (5 mg/kg/day) or the mixture of sulfapyridine (5-ASA, 3.12 mg/kg/day) and salicylate (SP, 1.72 mg/kg) for 3 days after brain ischemia."}, "ischemic cortex": {"tested_on": "ischemic cortex", "assay": "Microdialysis of extracellular glutamate in ischemic cortex of rats with CIR", "type": "in vivo, rat", "procedure": "as §4\nSamples were diluted in 20 mM borate buffer at pH 9.0 and were derivatized for 1 min with N-tert-butyloxycarbonyl-L-cysteine and o-phthaldialdehyde. Samples then were separated in a 5-mm C18 reverse-phase column (220×4.6 mm) Sheri-5 (Brownlee), and glutamate was monitored by fluorescence (334 nm excitation and 433 nm emission) using an RF-10AXL fluorescence detector (Shimadzu). Standards of glutamate were assayed before and after the dialysis samples. […]"}, "TUNEL-positive cells": {"tested_on": "TUNEL-positive cells", "assay": "TUNEL histochemistry in the ipsilateral cerebral hemisphere of rats with CIR", "type": "in vivo, rat", "procedure": "Animals were subjected to transient cerebral ischemia for 90 min in rats and 2 h in mice.\nTo detect apoptosis, a TUNEL staining Kit (DeadEnd Fluorimetric TUNEL system; Promega) was used for the TUNEL assay (Shyu W C, Lin S Z, Chiang M F, Chen D C, Su C Y, Wang H J, et al. Secretoneurin promotes neuroprotection and neuronal plasticity via the Jak2/Stat3 pathway in murine models of stroke. The Journal of clinical investigation. 2008; 118(1):133-48, which is incorporated by reference).\nas §5"}, "cortical infarct [2]": {"tested_on": "cortical infarct", "assay": "MRI infarct volume in rats with CIR", "type": "in vivo, rat", "settings": "day 28 after reperfusion", "procedure": "as §4\nMRI was performed on rats under anesthesia in a General Electric imaging system (R4; GE) at 3.0 T. Brains were scanned in 6-8 coronal image slices, each 2 mm thick without any gaps. […] The area of infarct was drawn manually from slice to slice, and the volume was then calculated by internal volume analysis software (Voxtool; GE) (Shyu W C, Lin S Z, Chiang M E, Chen D C, Su C Y, Wang H J, et al. Secretoneurin promotes neuroprotection and neuronal plasticity via the Jak2/Stat3 pathway in murine models of stroke. The Journal of clinical investigation. 2008; 118(1):133-48, which is incorporated by reference). […]"}},
  "data": [
    {"smiles": "CNC(=O)c1cc(Oc2ccc(NC(=O)Nc3ccc(Cl)c(C(F)(F)F)c3)cc2)ccn1", "note": "[sorafenib]", "values": [
      {"measurement": "apoptosis in neurons", "setting": "neurons", "result": "inhibited"},
      {"measurement": "OGDR-induced glutamate release (extracellular glutamate content)", "setting": "system xc−", "result": "inhibited"},
      {"measurement": "hyperfunction of NMDAR (binding radioactivity of 18F-FSAG)", "setting": "NMDAR", "result": "inhibited"},
      {"measurement": "apoptosis in astrocytes", "setting": "astrocytes", "result": "inhibited"},
      {"measurement": "cortical infarct volume (TTC staining)", "setting": "cortical infarct [1]", "result": "significantly smaller"},
      {"measurement": "LDH levels", "setting": "WT cortical cells", "result": "inhibited"}
    ]},
    {"smiles": "O=C(O)c1cc(/N=N/c2ccc(S(=O)(=O)Nc3ccccn3)cc2)ccc1O", "note": "[sulfasalazine]", "values": [
      {"measurement": "locomotor activity (number of vertical movements, vertical activity, vertical movement time)", "setting": "rats with CIR; between 7 and 28 days after CIR, compared with controls", "result": "significantly higher"},
      {"measurement": "improvement in grip strength", "setting": "rats with CIR; day 28 after reperfusion, compared with control groups", "result": "higher percentage of improvement"},
      {"measurement": "body asymmetry", "setting": "rats with CIR; days 7 to 28, compared with control rats", "result": "significantly reduced"},
      {"measurement": "extracellular glutamate content in ischemic cortex", "setting": "ischemic cortex; 5 mg/kg/day BID for 3 days, 4 to 72 h after reperfusion", "result": "reduction"},
      {"measurement": "suppression of glutamate efflux in ischemic cortex at different dosages", "setting": "ischemic cortex; different dosages", "result": "inhibited CIR-induced glutamate release in a dose-dependent manner"},
      {"measurement": "inhibition of TUNEL-positive cells at different dosages", "setting": "TUNEL-positive cells; different dosages", "result": "decreased CIR-induced apoptosis in a dose-dependent manner"},
      {"measurement": "number of TUNEL-positive cells", "setting": "TUNEL-positive cells; ischemic penumbra, 24 h after reperfusion", "result": "significantly reduced"},
      {"measurement": "apoptosis in neurons", "setting": "neurons", "result": "inhibited"},
      {"measurement": "OGDR-induced glutamate release (extracellular glutamate content)", "setting": "system xc−", "result": "inhibited"},
      {"measurement": "hyperfunction of NMDAR (binding radioactivity of 18F-FSAG)", "setting": "NMDAR", "result": "inhibited"},
      {"measurement": "cortical infarct size (MRI)", "setting": "cortical infarct [2]", "result": "remarkable size reductions"},
      {"measurement": "apoptosis in astrocytes", "setting": "astrocytes", "result": "inhibited"},
      {"measurement": "LDH levels", "setting": "WT cortical cells", "result": "inhibited"}
    ]}
  ]
}
